# Data reported in patent US7267715B2, “Ink and ink set” (Fujifilm Corporation, priority 2003, dated 2007).
# Assay: Oxidation potential by cyclic voltammetry
# Format: physicochemical
# Settings: test method of the specification (dimethylformamide, tetrapropylammonium perchlorate)
# Protocol: More specifically, a test sample is dissolved to a concentration of 1×10^−6 to 1×10^−4 mol/liter in a solvent such as dimethylformamide or acetonitrile containing a supporting electrolyte such as sodium perchlorate or tetrapropylammonium perchlorate and the oxidation potential is measured as a value to SCE (saturated calomel electrode) using a cyclic voltammetry. This value sometimes deviates on the order of tens of millivolt due to the effect of liquid junction potential, liquid resistance of sample solution, or the like, however, the reproducibility of potential can be guaranteed by adding a standard sample (for example, hydroquinone). In order to univocally specify the potential, in the present invention, the value (SCE standard) measured in a dimethylformamide (concentration of dye: 0.001·moldm^−3) containing 0.1 mol·dm^−3 of tetrapropylammonium perchlorate as the supporting electrolyte is used as the oxidation potential of the dye. In the case of a water-soluble dye, the dye is sometimes hardly dissolved directly in N,N-dimethylformamide. In such a case, the oxidation potential is measured after dissolving the dye by using water in a small amount as much as possible and then diluting it with N,N-dimethylformamide to have a water content of 2% or less.
row,SMILES,oxidation potential
1,Cc1c(C#N)c(Nc2ccc(S(=O)(=O)[O-])cc2)nc(Nc2ccc(S(=O)(=O)[O-])cc2)c1N=Nc1sc(N=Nc2cc(C(=O)[O-])cc(C(=O)[O-])c2)cc1C#N.[Li+].[Li+].[Li+].[Li+] [BK-4],1.32 V (vs SCE)
2,Cc1cc(C)c(S(=O)(=O)[O-])c(C)c1Nc1nc(N(c2nc3ccc(S(=O)(=O)[O-])cc3s2)c2c(C)cc(C)c(S(=O)(=O)O)c2C)ccc1/N=N/c1c(C#N)c(C(C)(C)C)nn1-c1nc2ccc(S(=O)(=O)[O-])cc2s1.[K+].[K+].[Na+] [M-3],1.29 V (vs SCE)
3,CC(C)(C)c1nn(-c2nc(Nc3cc(C(=O)[O-])cc(C(=O)[O-])c3)nc(Nc3cc(C(=O)[O-])cc(C(=O)[O-])c3)n2)c(N)c1/N=N/c1ncns1.[Na+].[Na+].[Na+].[Na+] [Y-2],1.25 V (vs SCE)
4,CC(C)CSc1nnc(/N=N/c2c(C(C)(C)C)nn(-c3nc(Nc4cc(C(=O)[O-])cc(C(=O)[O-])c4)nc(Nc4cc(C(=O)[O-])cc(C(=O)[O-])c4)n3)c2N)s1.[K+].[K+].[K+].[K+] [Y-3],1.22 V (vs SCE)
